What follows are compounds tested on HIV-1 (H9IIIB virus) (assay: Viking assay: antiviral potency in a multiple round HIV-1 infection assay (MT4-GFP cells)). Details: Human immunodeficiency virus 1, MT4-GFP cells, 10% normal human serum; inhibition of reproductive ratio R0; read-out: Viking, IC50 (10% NHS).
Format: cell-based
Protocol: Assessing Antiviral Potency in a Multiple Round HIV-1 Infection Assay.
HIV-1 replication was monitored using MT4-gag-GFP clone D3 (hereafter designate MT4-GFP), which are MT-4 cells modified to harbor a GFP reporter gene, the expression of which is dependent on the HIV-1 expressed proteins tat and rev. Productive infection of an MT4-GFP cell with HIV-1 results in GFP expression approximately 24h post-infection.
MT4-GFP cells were maintained at 37° C./5% CO2/90% relative humidity in RPMI 1640 supplemented with 10% fetal bovine serum, 100 U/mL penicillin/streptomycin, and 400 μg/mL G418 to maintain the reporter gene. For infections, MT4-GFP cells were placed in the same medium lacking G418 and infected overnight with H9IIIB virus at an approximate multiplicity of infection of 0.01 in the same incubation conditions. Cells were then washed and re-suspended in either RPMI 1640 containing 10% or 50% normal human serum at 1.6×10^5 cells/mL. Compound plates were prepared by dispensing compounds dissolved in DMSO into wells of 384 well poly D lysine-coated plates ([…]) using an ECHO acoustic dispenser. Each compound was tested in a 10 point serial 3-fold dilution (typical final concentrations: 8.4 μM-0.43 nM). Controls included no inhibitor (DMSO only) and a combination of three antiviral agents (efavirenz, indinavir, and an integrase strand transfer inhibitor at final concentrations of 4 μM each). Cells were added (50 μL/well) to compound plates and the infected cells were maintained at 37° C./5% CO2/90% relative humidity.
Infected cells were quantified at two time points, ˜48h and ˜72h post-infection, by counting the number of green cells in each well using an Acumen eX3 scanner. The increase in the number of green cells over ˜24h period gives the reproductive ratio, R0, which is typically 5-15 and has been shown experimentally to be in logarithmic phase (data not shown). Inhibition of R0 is calculated for each well, and IC50s determined by non-linear 4-parameter curve fitting.

Q: How did the IC50 turn out when `N#C[C@]1(CO)C[C@@H](n2cnc3c(N)nc(F)nc32)C[C@@H]1O` (single isomer, unassigned) [Example 73A, (1S,2S,4R)-4-(6-amino-2-fluoro-9H-purin-9-yl)-2-hydroxy-1-(hydroxymethyl)cyclopentane-1-carbonitrile or (1R,2R,4S)-4-(6-amino-2-fluoro-9H-purin-9-yl)-2-hydroxy-1-(hydroxymethyl)cyclopentane-1-carbonitrile] was run?
A: > 42 µM

Q: For `C#C[C@]1(CO)C[C@@H](n2ccc(N)nc2=O)C[C@@H]1O` (racemic) [Example (+/−) 38, 4-amino-1-((1R,3S,4S)-3-ethynyl-4-hydroxy-3-(hydroxymethyl)cyclopentyl)pyrimidin-2(1H)-one and 4-amino-1-((1S,3R,4R)-3-ethynyl-4-hydroxy-3-(hydroxymethyl)cyclopentyl)pyrimidin-2(1H)-one], which IC50 is on record?
A: > 42 µM

Q: Which IC50 does the source give for `C#C[C@]1(CO)C[C@@H](n2cnc3c(Cl)nc(F)nc32)C[C@@H]1O` (racemic) [Example (+/−) 12, (1S,2S,4R)-4-(6-chloro-2-fluoro-9H-purin-9-yl)-2-ethynyl-2-(hydroxymethyl)cyclopentan-1-ol and (1R,2R,4S)-4-(6-chloro-2-fluoro-9H-purin-9-yl)-2-ethynyl-2-(hydroxymethyl)cyclopentan-1-ol] here?
A: > 42 µM

Q: How did the IC50 turn out when `C#C[C@]1(CO)C[C@@H](n2cnc3c(=O)[nH]c(N)nc32)C[C@@H]1O` (racemic) [Example (+/−) 26, 2-amino-9-((1R,3S,4S)-3-ethynyl-4-hydroxy-3-(hydroxymethyl)cyclopentyl)-1,9-dihydro-6H-purin-6-one and 2-amino-9-((1S,3R,4R)-3-ethynyl-4-hydroxy-3-(hydroxymethyl)cyclopentyl)-1,9-dihydro-6H-purin-6-one] was run?
A: 0.195 µM

Q: For `N#C[C@]1(CO)C[C@@H](n2cnc3c(=O)[nH]c(N)nc32)C[C@@H]1O` (racemic) [Example (+/−) 61, (1S,2S,4R)-4-(2-amino-6-oxo-1,6-dihydro-9H-purin-9-yl)-2-hydroxy-1-(hydroxymethyl)cyclopentane-1-carbonitrile and (1R,2R,4S)-4-(2-amino-6-oxo-1,6-dihydro-9H-purin-9-yl)-2-hydroxy-1-(hydroxymethyl)cyclopentane-1-carbonitrile], which IC50 is on record?
A: 0.998 µM

Q: `N#C[C@]1(CO)C[C@@H](n2ccc(N)nc2=O)C[C@@H]1O` (racemic) [Example (+/−) 65, (1S,2S,4R)-4-(4-amino-2-oxopyrimidin-1(2H)-yl)-2-hydroxy-1-(hydroxymethyl)cyclopentane-1-carbonitrile and (1R,2R,4S)-4-(4-amino-2-oxopyrimidin-1(2H)-yl)-2-hydroxy-1-(hydroxymethyl)cyclopentane-1-carbonitrile] was tested. Which IC50 did it give?
A: > 42 µM

Q: Which IC50 does the source give for `C#C[C@]1(CO)C[C@@H](n2cnc3c(N)nc(Cl)nc32)C[C@@H]1O` (single isomer, unassigned) [Example 18B, (1S,2S,4R)-4-(6-amino-2-chloro-9H-purin-9-yl)-2-ethynyl-2-(hydroxymethyl)cyclopentan-1-ol or (1R,2R,4S)-4-(6-amino-2-chloro-9H-purin-9-yl)-2-ethynyl-2-(hydroxymethyl)cyclopentan-1-ol] here?
A: 11.7 µM

Q: Which IC50 does the source give for `C#C[C@]1(CO[P@@](=O)(N[C@@H](C)C(=O)OC(C)C)Oc2ccccc2)C[C@@H](n2cnc3c(OCC)nc(N)nc32)C[C@@H]1O` (single isomer, unassigned) [Example 39B, Isopropyl ((S)-(((1S,2S,4R)-4-(2-amino-6-ethoxy-9H-purin-9-yl)-1-ethynyl-2-hydroxycyclopentyl)methoxy)(phenoxy)phosphoryl)-L-alaninate or Isopropyl ((S)-(((1R,2R,4S)-4-(2-amino-6-ethoxy-9H-purin-9-yl)-1-ethynyl-2-hydroxycyclopentyl)methoxy)(phenoxy)phosphoryl)-L-alaninate] here?
A: 0.00593 µM

Q: Which IC50 does the source give for `C#C[C@]1(CO)C[C@@H](n2ccc3c(N)nc(Cl)nc32)C[C@@H]1O` (racemic) [Example (+/−) 22, (1S,2S,4R)-4-(4-amino-2-chloro-7H-pyrrolo[2,3-d]pyrimidin-7-yl)-2-ethynyl-2-(hydroxymethyl)cyclopentan-1-ol and (1R,2R,4S)-4-(4-amino-2-chloro-7H-pyrrolo[2,3-d]pyrimidin-7-yl)-2-ethynyl-2-(hydroxymethyl)cyclopentan-1-ol] here?
A: 22.2 µM

Q: For `C#C[C@]1(CO)C[C@@H](n2cc(C)c(=O)[nH]c2=O)C[C@@H]1O` (racemic) [Example (+/−) 34, 1-((1R,3S,4S)-3-ethynyl-4-hydroxy-3-(hydroxymethyl)cyclopentyl)-5-methylpyrimidine-2,4(1H,3H)-dione and 1-((1S,3R,4R)-3-ethynyl-4-hydroxy-3-(hydroxymethyl)cyclopentyl)-5-methylpyrimidine-2,4(1H,3H)-dione], which IC50 is on record?
A: > 42 µM

Q: `C#C[C@@]1(CO[P@@](=O)(N[C@@H](C)C(=O)OC(C)C)Oc2ccccc2)C[C@H](n2cnc3c(OCC)nc(N)nc32)C[C@H]1O` (single isomer, unassigned) [Example 39A, Isopropyl ((S)-(((1S,2S,4R)-4-(2-amino-6-ethoxy-9H-purin-9-yl)-1-ethynyl-2-hydroxycyclopentyl)methoxy)(phenoxy)phosphoryl)-L-alaninate or Isopropyl ((S)-(((1R,2R,4S)-4-(2-amino-6-ethoxy-9H-purin-9-yl)-1-ethynyl-2-hydroxycyclopentyl)methoxy)(phenoxy)phosphoryl)-L-alaninate] was tested. Which IC50 did it give?
A: 0.484 µM

Q: For `Cc1cn([C@H]2C[C@H](O)[C@@](C#N)(CO)C2)c(=O)[nH]c1=O` (racemic) [Example (+/−) 69, (1S,2S,4R)-2-hydroxy-1-(hydroxymethyl)-4-(5-methyl-2,4-dioxo-3,4-dihydropyrimidin-1(2H)-yl)cyclopentane-1-carbonitrile and (1R,2R,4S)-2-hydroxy-1-(hydroxymethyl)-4-(5-methyl-2,4-dioxo-3,4-dihydropyrimidin-1(2H)-yl)cyclopentane-1-carbonitrile], which IC50 is on record?
A: 16 µM

Q: How did the IC50 turn out when `N#C[C@@]1(CO)C[C@H](n2cnc3c(N)nc(F)nc32)C[C@H]1O` (single isomer, unassigned) [Example 73B, (1S,2S,4R)-4-(6-amino-2-fluoro-9H-purin-9-yl)-2-hydroxy-1-(hydroxymethyl)cyclopentane-1-carbonitrile or (1R,2R,4S)-4-(6-amino-2-fluoro-9H-purin-9-yl)-2-hydroxy-1-(hydroxymethyl)cyclopentane-1-carbonitrile] was run?
A: 11 µM

Same assay, conditions: MT4-GFP cells, 10% normal human serum; inhibition of reproductive ratio R0; read-out: Viking, IC50 (10% NHS)

Q: For `C#C[C@]1(CO)C[C@@H](n2cnc3c(=O)[nH]c(N)nc32)C[C@@H]1O` (single isomer, unassigned) [Example 26B, 2-amino-9-((1R,3S,4S)-3-ethynyl-4-hydroxy-3-(hydroxymethyl)cyclopentyl)-1,9-dihydro-6H-purin-6-one or 2-amino-9-((1S,3R,4R)-3-ethynyl-4-hydroxy-3-(hydroxymethyl)cyclopentyl)-1,9-dihydro-6H-purin-6-one], which IC50 is on record?
A: 0.142 µM

Q: `C#C[C@]1(CO)C[C@@H](n2cnc3c(=O)[nH]c(N)nc32)C[C@@H]1O` (single isomer, unassigned) [Example 26A, 2-amino-9-((lR,3S,4S)-3-ethynyl-4-hydroxy-3-(hydroxymethyl)cyclopentyl)-1,9-dihydro-6H-purin-6-one or 2-amino-9-((1S,3R,4R)-3-ethynyl-4-hydroxy-3-(hydroxymethyl)cyclopentyl)-1,9-dihydro-6H-purin-6-one] was tested. Which IC50 did it give?
A: > 42 µM

Reference: patent publication US11040975B2, “Carbocyclic nucleoside reverse transcriptase inhibitors” (Merck Sharp & Dohme Corp., priority 2017, dated 2021)
